Reference: patent publication US20250228239A1, “MOLECULES HAVING PESTICIDAL UTILITY, AND INTERMEDIATES, COMPOSITIONS, AND PROCESSES, RELATED THERETO” (priority 2024, published 2025)
Like-named read-outs stand apart in the source and are kept apart here.

Experiments:
[1] = test system: Beet Armyworm (Spodoptera exigua, LAPHEG); assay: Bioassays on Beet Armyworm (BAW), 128-well diet tray assay; format: in vivo; conditions: Spodoptera exigua
Summary of the method: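 Larvae at second instar are exposed on dried, compound-treated diet (50 μg/cm^2, delivered in 90:10 acetone-water) in eight replicate wells. After five to seven days at 25° C., 14:10 light-dark, percent mortality in each well is scored and the eight wells averaged.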

[2] = test system: Cabbage Looper (Trichoplusia ni, TRIPNI); assay: Bioassays on Cabbage Looper (CL), 128-well diet tray assay; format: in vivo; conditions: Trichoplusia ni
Summary of the method: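 Diet tray, 2nd instar, 1–5 larvae/well; 50 μg/cm^2 compound surface-applied (acetone:water 90:10), dried; 8 wells/treatment; 25° C, 14:10 L:D, 5–7 d; % mortality, mean of 8 wells.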

[3] = Beet Armyworm, Table ABC / ABC-DP rating, read-out: BAW rating
[4] = Cabbage Looper, Table ABC / ABC-DP rating, read-out: CL rating
[5] = Table ABC: Biological Results, species BAW, read-out: BAW
[6] = Table ABC: Biological Results, species CL, read-out: CL
[7] = Beet Armyworm, rating class, read-out: BAW
[8] = Cabbage Looper, rating class, read-out: CL

Compound | pest or weed control at 50 µg/cm2 [1, 5] | pest or weed control at 50 µg/cm2 [2, 6] | pest or weed control at 50 µg/cm2 [1, 7] | pest or weed control at 50 µg/cm2 [2, 8] | other results
O=C(COC(F)(F)F)Nc1ccc(F)c(NC(=O)c2cc(NC(=O)[C@H]3[C@H](c4cc(Cl)c(Cl)c(Cl)c4)C3(Cl)Cl)cc(F)c2F)c1F [F1777, 5-((1R,3R)-2,2-Dichloro-3-(3,4,5-trichlorophenyl)cyclopropane-1-carboxamido)-N-(2,6-difluoro-3-(2-(trifluoromethoxy)acetamido)phenyl)-2,3-difluorobenzamide] |  |  |  |  | pest or weed control at 50 µg/cm2 [1, 3]: 50 to 100%; pest or weed control at 50 µg/cm2 [2, 4]: 50 to 100%
O=C(Nc1c(F)ccc(NC(=O)C(F)F)c1F)c1cc(NC(=O)[C@H]2[C@H](c3ccc(F)c(C(F)(F)F)c3)C2(Cl)Cl)cc(F)c1Cl [F1347, 2-Chloro-5-((1R,3R)-2,2-dichloro-3-(4-fluoro-3-(trifluoromethyl)phenyl)cyclopropane-1-carboxamido)-N-(3-(2,2-difluoroacetamido)-2,6-difluorophenyl)-3-fluorobenzamide] | 50 to 100% | 50 to 100% |  |  | 
O=C(Nc1ccc(F)c(Br)c1F)c1cc(NC(=O)[C@H]2[C@H](c3cc(Cl)cc(Cl)c3)C2(Cl)Cl)ccc1Cl (relative stereo) [F1307, trans-N-(3-Bromo-2,4-difluorophenyl)-2-chloro-5-(2,2-dichloro-3-(3,5-dichlorophenyl)cyclopropane-1-carboxamido)benzamide] | 50 to 100% | 50 to 100% |  |  | 
O=C(Nc1ccc(F)c(NC(=O)C(F)(F)C(F)(F)C(F)(F)F)c1F)c1cc(NC(=O)[C@H]2[C@H](c3ccc(Cl)c(Cl)c3)C2(Cl)Cl)ccc1Cl [F1463, 2-Chloro-5-((1R,3R)-2,2-dichloro-3-(3,4-dichlorophenyl)cyclopropane-1-carboxamido)-N-(2,4-difluoro-3-(2,2,3,3,4,4,4-heptafluorobutanamido)phenyl)benzamide] |  |  | 50 to 100% | 50 to 100% | 
O=C(Nc1ccc(F)c(NC(=O)C(F)(F)C(F)F)c1F)c1cc(NC(=O)[C@H]2[C@H](c3cccc(C(F)(F)F)c3)C2(Cl)Cl)ccc1Cl [F1677, 2-Chloro-5-((1R,3R)-2,2-dichloro-3-(3-(trifluoromethyl)phenyl)cyclopropane-1-carboxamido)-N-(2,4-difluoro-3-(2,2,3,3-tetrafluoropropanamido)phenyl)benzamide] |  |  | 50 to 100% | 50 to 100% | 
Nc1ccc(F)c(NC(=O)c2cc(NC(=O)[C@H]3[C@H](c4ccc(Cl)c(Cl)c4)C3(Cl)Cl)cc(F)c2Cl)c1F [F1338, N-(3-Amino-2,6-difluorophenyl)-2-chloro-5-((1R,3R)-2,2-dichloro-3-(3,4-dichlorophenyl)cyclopropane-1-carboxamido)-3-fluorobenzamide] | 50 to 100% | 50 to 100% |  |  | 
Nc1ccc(F)c(NC(=O)c2cc(NC(=O)[C@H]3[C@H](c4ccc(F)c(C(F)(F)F)c4)C3(Cl)Cl)cc(F)c2Cl)c1F [F1339, N-(3-Amino-2,6-difluorophenyl)-2-chloro-5-((1R,3R)-2,2-dichloro-3-(4-fluoro-3-(trifluoromethyl)phenyl)cyclopropane-1-carboxamido)-3-fluorobenzamide] | 50 to 100% | 50 to 100% |  |  | 
Nc1c(F)ccc(NC(=O)c2c(Cl)ccc(NC(=O)[C@H]3[C@H](c4ccc(F)c(Cl)c4)C3(Cl)Cl)c2Cl)c1F (relative stereo) [F1110, trans-N-(3-Amino-2,4-difluorophenyl)-2,6-dichloro-3-(2,2-dichloro-3-(3-chloro-4-fluorophenyl)cyclopropane-1-carboxamido)benzamide] | 50 to 100% | 50 to 100% |  |  | 
O=C(Nc1cc(F)c(NC(=O)C(F)(F)F)c(F)c1)c1cc(NC(=O)[C@H]2[C@H](c3ccc(Cl)c(Cl)c3)C2(Cl)Cl)ccc1Cl (relative stereo) [F1120, trans-2-Chloro-5-(2,2-dichloro-3-(3,4-dichlorophenyl)cyclopropane-1-carboxamido)-N-(3,5-difluoro-4-(2,2,2-trifluoroacetamido)phenyl)benzamide] | 50 to 100% | 50 to 100% |  |  | 
Cc1cc([C@H]2[C@H](C(=O)Nc3ccc(Cl)c(C(=O)Nc4ccc(F)c(N)c4F)c3)C2(Cl)Cl)cc(C(F)(F)F)c1F (relative stereo) [F1068, trans-N-(3-Amino-2,4-difluorophenyl)-2-chloro-5-(2,2-dichloro-3-(4-fluoro-3-methyl-5-(trifluoromethyl)phenyl)cyclopropane-1-carboxamido)benzamide] | 50 to 100% | 50 to 100% |  |  | 
O=C(Nc1cc(NC(=O)C(F)(F)F)c(F)cc1F)c1cc(NC(=O)[C@H]2[C@H](c3ccc(F)c(Cl)c3)C2(Cl)Cl)cc(F)c1Cl [F1401, 2-Chloro-5-((1R,3R)-2,2-dichloro-3-(3-chloro-4-fluorophenyl)cyclopropane-1-carboxamido)-N-(2,4-difluoro-5-(2,2,2-trifluoroacetamido)phenyl)-3-fluorobenzamide] |  |  | 50 to 100% | 50 to 100% | 
CC(=O)Nc1ccc(F)c(NC(=O)c2cc(NC(=O)[C@H]3[C@H](c4cc(Cl)c(Cl)c(Cl)c4)C3(Cl)Cl)cc(F)c2Cl)c1F [F1520, N-(3-Acetamido-2,6-difluorophenyl)-2-chloro-5-((1R,3R)-2,2-dichloro-3-(3,4,5-trichlorophenyl)cyclopropane-1-carboxamido)-3-fluorobenzamide] |  |  | 50 to 100% | 50 to 100% | 
O=C(Nc1c(F)ccc(NC(=O)C(F)F)c1F)c1cc(NC(=O)[C@H]2[C@H](c3ccc(Cl)c(Cl)c3)C2(Cl)Cl)cc(F)c1F [F1577, 5-((1R,3R)-2,2-Dichloro-3-(3,4-dichlorophenyl)cyclopropane-1-carboxamido)-N-(3-(2,2-difluoroacetamido)-2,6-difluorophenyl)-2,3-difluorobenzamide] |  |  | 50 to 100% | 50 to 100% | 
CCNC(=O)c1c(Cl)ccc(NC(=O)[C@H]2[C@H](c3ccc(F)c(Cl)c3)C2(Cl)Cl)c1F [F2071, 6-Chloro-3-((1R,3R)-2,2-dichloro-3-(3-chloro-4-fluorophenyl)cyclopropane-1-carboxamido)-N-ethyl-2-fluorobenzamide] |  |  |  |  | pest or weed control at 50 µg/cm2 [1, 3]: 50 to 100%; pest or weed control at 50 µg/cm2 [2, 4]: 50 to 100%
Cc1cc(NC(=O)[C@H]2[C@H](c3ccc(Cl)c(Cl)c3)C2(Cl)Cl)cc(C(=O)Nc2ccc(F)c(N)c2F)c1Cl [F1446, N-(3-Amino-2,4-difluorophenyl)-2-chloro-5-((1R,3R)-2,2-dichloro-3-(3,4-dichlorophenyl)cyclopropane-1-carboxamido)-3-methylbenzamide] |  |  | 50 to 100% | 50 to 100% | 
CC(=O)Nc1cc(F)ccc1NC(=O)c1cc(NC(=O)[C@H]2[C@H](c3ccc(Cl)c(Cl)c3)C2(Cl)Cl)ccc1Cl (relative stereo) [F1125, trans-N-(2-Acetamido-4-fluorophenyl)-2-chloro-5-(2,2-dichloro-3-(3,4-dichlorophenyl)cyclopropane-1-carboxamido)benzamide] | 50 to 100% | 50 to 100% |  |  | 
CC(=O)Nc1ccc(F)c(NC(=O)c2cc(NC(=O)[C@H]3[C@H](c4ccc(Cl)c(Cl)c4)C3(Cl)Cl)ccc2Cl)c1F [F1536, N-(3-Acetamido-2,6-difluorophenyl)-2-chloro-5-((1R,3R)-2,2-dichloro-3-(3,4-dichlorophenyl)cyclopropane-1-carboxamido)benzamide] |  |  | 50 to 100% | 50 to 100% | 
